Laboratory results: ChEMBL document CHEMBL4184222, “A multifaceted approach to identify non-specific enzyme inhibition: Application to Mycobacterium tuberculosis shikimate kinase” (Bioorg Med Chem Lett, 2018)
pIC50: −log10 of the molar value. Converted amounts (≈) assume the structure as drawn.

Columns and labels:
[1] = tested on: Mycobacterium tuberculosis; assay: Inhibition of Mycobacterium tuberculosis shikimate kinase assessed as reduction in S3P production at 100 uM pre-incubated with 0.02 uM enzyme for 30 mins before ATP and shikimate substrate addition in absence of Triton X-100 by LC-MS assay
[2] = Aggregation property of the compound in ammonium acetate buffer at pH 7.6 assessed as particle size at 100 uM in presence of Triton X-100 by dynamic light scattering method; format: physicochemical; conditions: pH 7.6, 100 µM
[3] = Aggregation property of the compound in water at pH 7 assessed as particle size at 100 uM in absence of Triton X-100 by dynamic light scattering method; format: physicochemical; conditions: buffer, pH 7, 100 µM
[4] = Aggregation property of the compound in ammonium acetate buffer at pH 7.6 assessed as light scattering intensity counts at 100 uM in absence of Triton X-100 by dynamic light scattering method; format: physicochemical; conditions: pH 7.6, 100 µM
[5] = tested on: Mycobacterium tuberculosis; assay: Inhibition of Mycobacterium tuberculosis shikimate kinase assessed as reduction in S3P production at 100 uM pre-incubated with 0.2 uM enzyme for 30 mins before ATP and shikimate substrate addition in absence of Triton X-100 by LC-MS assay
[6] = Inhibition of Mycobacterium tuberculosis shikimate kinase assessed as reduction in S3P production […] pre-incubated with 0.015 uM enzyme for 30 mins before ATP and shikimate substrate addition by LC-MS assay
[7] = tested on: Mycobacterium tuberculosis; assay: Inhibition of Mycobacterium tuberculosis shikimate kinase assessed as reduction in S3P production at 100 uM pre-incubated with 0.2 uM enzyme for 30 mins before ATP and shikimate substrate addition in presence of Triton X-100 by LC-MS assay
[8] = Aggregation property of the compound in ammonium acetate buffer at pH 7.6 assessed as particle size at 100 uM in absence of Triton X-100 by dynamic light scattering method; format: physicochemical; conditions: pH 7.6, 100 µM
[9] = Aggregation property of the compound in water at pH 7 assessed as particle size at 100 uM in presence of Triton X-100 by dynamic light scattering method; format: physicochemical; conditions: buffer, pH 7, 100 µM
[10] = Aggregation property of the compound in ammonium acetate buffer at pH 7.6 assessed as light scattering intensity counts at 100 uM in presence of Triton X-100 by dynamic light scattering method; format: physicochemical; conditions: pH 7.6, 100 µM
[11] = tested on: Mycobacterium tuberculosis; assay: Inhibition of Mycobacterium tuberculosis shikimate kinase assessed as reduction in S3P production at 100 uM pre-incubated with 0.02 uM enzyme for 30 mins before ATP and shikimate substrate addition in presence of Triton X-100 by LC-MS assay
[12] = tested on: Mycobacterium tuberculosis; assay: Antimycobacterial activity against Mycobacterium tuberculosis H37Rv; format: functional
[13] = tested on: Mycobacterium tuberculosis; assay: Inhibition of Mycobacterium tuberculosis shikimate kinase assessed as reduction in S3P production at <50 uM pre-incubated for 30 mins before ATP and shikimate substrate addition by LC-MS assay
[14] = Aggregation property of the compound in water at pH 7 assessed as light scattering intensity counts at 100 uM in absence of Triton X-100 by dynamic light scattering method; format: physicochemical; conditions: buffer, pH 7, 100 µM
[15] = Aggregation property of the compound in water at pH 7 assessed as light scattering intensity counts at 100 uM in presence of Triton X-100 by dynamic light scattering method; format: physicochemical; conditions: buffer, pH 7, 100 µM
[16] = Aggregation property of the compound in potassium phosphate buffer at pH 7.2 assessed as micelle formation by measuring peal broadening at 12.5 to 200 uM by one-dimensional 1H-NMR spectroscopy; format: physicochemical; conditions: pH 7.2, 200 µM

SMILES | inhibition [1] | Activity [2] | Activity [3] | Activity [4] | inhibition [5] | pIC50 [6] | inhibition [7] | Activity [8] | Activity [9] | Activity [10] | inhibition [11] | IC90 [12] | inhibition [13] | Activity [14] | Activity [15] | Activity [16]
O=C(Nc1nnc(-c2ccccc2Cl)o1)c1cccc(Oc2ccccc2)c1 | 90% | 516 nm | 2423 nm | 350 kCounts | 0% | 4.41 | 0% | 2850 nm | 481 nm | 180 kCounts | 0% | 0.86 µg/mL (≈ 2.19 µM) | > 90% | 330 kCounts | 170 kCounts | 
Cc1ccc(-c2nnc(NC(=O)c3ccc([N+](=O)[O-])o3)o2)c(C)c1 | 91.6% | 131 nm | 823 nm | 190 kCounts | 0% | 4.18 | 0% | 851 nm | 131 nm | 83 kCounts | 0% | 0.69 µg/mL (≈ 2.1 µM) | > 90% | 182 kCounts | 72 kCounts | 
Nc1nc2ccc(OC(F)(F)F)cc2s1 [RILUZOLE] |  |  |  |  |  |  |  |  |  |  |  |  |  |  |  | Not Active
O=C(/C=C/c1ccccc1)Nc1nnc(-c2ccc3c(c2)CCCC3)o1 | 95% | 390 nm | 1820 nm | 310 kCounts | 0% | 4.23 | 0% | 1820 nm | 353 nm | 141 kCounts | 0% | 1.68 µg/mL (≈ 4.86 µM) | > 90% | 306 kCounts | 138 kCounts | 
